Measured values published in patent publication US7045315B2, “Methods for modulating expression of exogenous genes in mammalian systems” (The Salk Institute for Biological Studies, priority 1998, dated 2006).

Columns and labels:
Assay type in all cases: cell-based
VgEcR/RXR heterodimer = test: Assay for inducer effectiveness on the ecdysone-inducible expression system (E/GRE4-ΔMTV-Luc reporter, CV-1 cells); conditions: for ability to activate the expression system in the further presence of an RXR agonist: diacylhydrazine plus LG1000268 vs alone, FIG. 4
Method: CV-1 cells were maintained in DMEM supplemented with 10% fetal bovine serum. Transfections were performed using the Dotap transfection reagent (Boehringer Mannheim). All candidate inducers were dissolved in either ethanol or DMSO. Muristerone A (MurA) was used as a positive control for activation. All transfections were performed in triplicate.
The E/GRE4-ΔMTV-Luc plasmid is routinely used as a reporter. […] A CMX-β-gal reporter plasmid was included in the transfection as a control for transfection efficiency. Approximately 10 hours after transfection, the media was removed and replaced with fresh media containing varying concentrations of the putative inducers. Cells were exposed to candidate activators for 20–48 hours, then assayed for luciferase and β-galactosidase activity employing standard techniques. Luciferase values were normalized using β-galactosidase activity levels.

[1] = test system: RXR and VpEcR heterodimer; test: Transient transfection reporter assay in CV-1 cells, RXR and VpEcR; conditions: 1 μM muristerone A, FIG. 1A
Method: (§1) CV-1 cells were maintained in DMEM supplemented with 10% Fetal Bovine Serum. Transient transfections were performed using DOTAP transfection reagent (Boehringer-Mannheim). Transfections using β-galactosidase as the reporter were assayed either by Galactolight luminescent assay (Tropix, Bedford, Mass.) or by standard liquid ONPG assay (Sigma, St. Louis, Mo). The values were normalized by co-transfection of CMX-luciferase. Transfections using luciferase as the reporter were assayed by standard techniques using luciferin and ATP. These values were normalized by co-transfection of CMX-β-galactosidase. Hormone treated cells were treated with ethanol, 50 μM Juvenile Hormone III (Sigma), 1 μM muristerone A (Zambon, Bresso, IT), or 1 μM dexamethasone (Sigma) unless otherwise noted.

[2] = molecular target: T1, ecdysone receptor (EcR) with USP (Drosophila melanogaster, UniProt P34021); test: Transient transfection reporter assay in CV-1 cells, ecdysone receptor with USP; conditions: 1 μM muristerone A vs ethanol, unmodified ecdysone receptor, FIG. 1A
T1 construct: expressed in transfected cells; host or cells: CV-1 cells
T1 sequence (P34021 1-878): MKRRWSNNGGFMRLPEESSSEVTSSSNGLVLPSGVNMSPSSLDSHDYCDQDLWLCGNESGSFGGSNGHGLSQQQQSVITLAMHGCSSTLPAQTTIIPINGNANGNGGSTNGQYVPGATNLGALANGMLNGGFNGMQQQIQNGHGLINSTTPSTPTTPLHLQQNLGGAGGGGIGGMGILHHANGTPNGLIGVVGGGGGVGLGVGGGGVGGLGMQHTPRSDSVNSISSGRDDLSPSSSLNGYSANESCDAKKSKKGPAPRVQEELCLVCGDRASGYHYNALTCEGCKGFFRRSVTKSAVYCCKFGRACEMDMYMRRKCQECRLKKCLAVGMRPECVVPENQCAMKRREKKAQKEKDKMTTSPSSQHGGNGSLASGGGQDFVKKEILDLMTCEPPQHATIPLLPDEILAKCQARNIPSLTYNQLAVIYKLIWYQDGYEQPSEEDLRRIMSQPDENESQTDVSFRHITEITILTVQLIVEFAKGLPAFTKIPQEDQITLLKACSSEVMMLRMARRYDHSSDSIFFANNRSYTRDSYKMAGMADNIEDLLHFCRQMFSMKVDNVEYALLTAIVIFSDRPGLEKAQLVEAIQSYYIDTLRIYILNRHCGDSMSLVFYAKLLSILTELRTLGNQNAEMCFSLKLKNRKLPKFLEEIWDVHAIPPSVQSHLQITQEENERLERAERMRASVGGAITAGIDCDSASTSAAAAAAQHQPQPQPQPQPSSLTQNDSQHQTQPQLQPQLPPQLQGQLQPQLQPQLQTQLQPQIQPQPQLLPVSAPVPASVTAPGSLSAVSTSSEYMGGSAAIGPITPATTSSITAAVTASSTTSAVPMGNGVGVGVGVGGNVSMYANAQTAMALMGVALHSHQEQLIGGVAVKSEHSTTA
T1 sequence (P20153 1-508 partner): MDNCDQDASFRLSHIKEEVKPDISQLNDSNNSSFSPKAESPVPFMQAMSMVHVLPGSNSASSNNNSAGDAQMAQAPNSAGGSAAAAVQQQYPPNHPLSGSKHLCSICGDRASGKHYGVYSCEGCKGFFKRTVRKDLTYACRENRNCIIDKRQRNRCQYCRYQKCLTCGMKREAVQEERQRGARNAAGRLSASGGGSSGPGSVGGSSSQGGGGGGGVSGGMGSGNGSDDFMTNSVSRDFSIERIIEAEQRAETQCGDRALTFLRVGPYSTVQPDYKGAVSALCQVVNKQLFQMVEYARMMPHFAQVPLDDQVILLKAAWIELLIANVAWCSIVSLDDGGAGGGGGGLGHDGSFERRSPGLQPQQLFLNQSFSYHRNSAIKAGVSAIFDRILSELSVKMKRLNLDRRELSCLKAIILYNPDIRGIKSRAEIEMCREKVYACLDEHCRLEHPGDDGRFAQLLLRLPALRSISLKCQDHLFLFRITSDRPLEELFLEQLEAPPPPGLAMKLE
Method: as §1
(§2) To maximize the sensitivity of the invention ecdysone inducible system, modifications of the ecdysone receptor were made. The N-terminal transactivation domain of the ecdysone receptor was replaced by the corresponding domain of the glucocorticoid receptor (GR), resulting in the modified ecdysone receptor GEcR (See FIG. 1D). CV-1 cells were transfected with the plasmid CMX-GEcR encoding the modified ecdysone receptor as discussed above. […]

[3] = test system: GEcR (modified ecdysone receptor); test: Transient transfection reporter assay in CV-1 cells, modified ecdysone receptor GEcR; conditions: 1 μM muristerone A vs ethanol; CV-1 cells transfected with CMX-GEcR; FIG. 1A
Method: as §1, §2

[4] = molecular target: T2, ecdysone receptor heterodimer with retinoid X receptor (RXR) (Drosophila melanogaster, UniProt P34021); test: Transient transfection reporter assay in CV-1 cells, USP replaced by RXR; conditions: 1 μM muristerone A, FIG. 1A
T2 construct: expressed in transfected cells; host or cells: CV-1 cells
T2 sequence (P34021 1-878): T1 sequence (P34021 1-878)
T2 sequence (P19793 1-462 partner): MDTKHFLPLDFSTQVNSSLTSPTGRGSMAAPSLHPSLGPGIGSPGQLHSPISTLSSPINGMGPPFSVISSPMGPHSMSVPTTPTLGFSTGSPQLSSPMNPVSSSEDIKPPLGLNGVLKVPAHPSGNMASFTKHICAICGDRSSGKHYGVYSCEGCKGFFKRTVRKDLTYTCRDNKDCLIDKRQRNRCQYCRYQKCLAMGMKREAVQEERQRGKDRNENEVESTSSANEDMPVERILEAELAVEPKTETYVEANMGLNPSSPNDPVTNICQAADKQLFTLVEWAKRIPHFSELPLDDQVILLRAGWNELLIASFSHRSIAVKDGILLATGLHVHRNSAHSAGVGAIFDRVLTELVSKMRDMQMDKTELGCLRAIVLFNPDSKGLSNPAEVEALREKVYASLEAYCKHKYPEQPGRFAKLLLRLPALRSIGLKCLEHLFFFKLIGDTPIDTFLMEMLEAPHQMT
Method: as §1, §2

SMILES	ability to activate the expression system in the further presence of an RXR agonist (VgEcR/RXR heterodimer)	activation of the ecdysone-inducible system, combination with RXR ligand (VgEcR/RXR heterodimer; MurA concentration varied, LG1000268 constant 100 nM, FIG. 3)	activation of the ecdysone-inducible system, ligand alone (VgEcR/RXR heterodimer; ligand alone over several concentrations, luciferase normalized to β-galactosidase, FIG. 3)	fold induction of reporter [1]	muristerone responsiveness (fold induction of reporter) [2]	muristerone responsiveness (fold induction of reporter) [3]	fold induction of reporter [4]
Cc1cc(C)cc(C(=O)N(NC(=O)c2ccc3c(c2C)OCCO3)C(C)(C)C)c1 [N′-(3,5-dimethylbenzoyl)-N-(2-methyl-3,4-(ethylenedioxy)-benzoyl)-N′-(tert-butyl) hydrazine]	enhanced ability						
CCc1ccc(C(=O)NN(C(=O)c2cc(C)cc(C)c2)C(C)(C)C)cc1 [N′-(3,5-dimethylbenzoyl)-N-(4-ethylbenzoyl)-N′-(tert-butyl) hydrazine]	enhanced ability						
CC(C)CC[C@@H](O)[C@](C)(O)[C@H]1CC[C@@]2(O)C3=CC(=O)[C@]4(O)C[C@@H](O)[C@@H](O)C[C@]4(C)[C@H]3[C@H](O)C[C@]12C [muristerone A]		dramatically enhances the activation	effective inducer	212 fold	3 fold	11 fold	34 fold
